Results on 16 compounds are retold here after patent US9777301B2, “Method for producing optically active amine compounds by deracemization” (INDUSTRY-ACADEMIC COOPERATION FOUNDATION, YONSEI UNIVERSITY, priority 2012, dated 2017).

Marks after values point to notes of the source that are not given here.

Experiment [1] deals with D-amino acid transaminase. The experiment in a line: Effect of L-amino acid concentration on activity of D-amino acid transaminase. Particulars: 0-20 mM L-homoalanine in 20 mM D-homoalanine, 20 mM pyruvate, pH 7, 37° C., 10 min; 2-oxobutyrate measured. In kind it is biochemical, Bacillus sphaericus. As to the method:
For continuous deracemization of a racemic amino acid with the D-amino acid transaminase purified in Example 7, L-amino acid as a final product should not affect the activity of the D-amino acid transaminase. Deterioration in the activity of the enzyme by the final product makes it difficult to induce continuous reactions. The activities of the D-amino acid transaminase were confirmed at different concentrations (0, 1, 3, 5, 7, 10, 15, and 20 mM) of L-homoalanine in 20 mM D-homoalanine, 20 mM pyruvate, and 50 mM potassium phosphate (pH 7). After the reactions were carried out at 37° C. for 10 min, the amounts of 2-oxobutyrate produced were measured.

Experiment [2] relates to (S)-selective ω-transaminase derived from O. anthropi. As to the kind of experiment: Substrate specificity of ω-transaminase toward 11 racemic amines (initial rate, relative reactivity). The class given is biochemical, Ochrobactrum anthropi. The settings on record: for Relative reactivity (%): PLP 0.1 mM, 10 min, activity toward α-methylbenzylamine defined as 100%; for Activity toward (S)-1-aminoindane relative to (S)-α-methylbenzylamine: (S)-enantiomer compared with (S)-α-methylbenzylamine, value in parentheses in Table 13. As to the method:
An investigation was made as to the substrate specificities of the (S)-selective ω-transaminase derived from O. anthropi, which was purified in Example 7, toward 11 amines: α-methylbenzylamine 1a, 4-fluoro-α-methylbenzylamine 1b, α-ethylbenzylamine 1c, 1-methyl-3-phenylpropylamine 1d, 1-aminoindane 1e, sec-butylamine 1f, cyclopropylethylamine 1g, 2-aminopentane 1h, 2-aminooctane 1i, 1-methoxy-2-propylamine 1j, and alaninol 1k. 0.125 U/ml of the (S)-selective transaminase derived from O. anthropi was added to each racemic amine (10 mM), pyruvate (10 mM), PLP (0.1 mM), and phosphate buffer (50 mM, pH 7.5) at 37° C. After the mixture was allowed to react for 10 min, the amount of L-alanine produced was measured via GITC derivatization. All activities were measured in the initial reaction rate range of ≦5% conversion. The initial reaction rate for α-methylbenzylamine was measured to be 0.033 mM/min. When the activity of the ω-transaminase toward α-methylbenzylamine was defined as 100%, the activities of the ω-transaminase toward 4-fluoro-α-methylbenzylamine 1b, α-ethylbenzylamine 1c, 1-methyl-3-phenylpropylamine 1d, and 1-aminoindane 1e as arylalkylamines were 91%, 18%, 70%, and 64%, respectively. The activity of the ω-transaminase toward (S)-1-aminoindane was 153% of that toward (S)-α-methylbenzylamine. The activities of the ω-transaminase toward sec-butylamine 1f, cyclopropylethylamine 1g, 2-aminopentane 1h, 2-aminooctane 1i, 1-methoxy-2-propylamine 1j, and alaninol 1k as alkylamines were 54%, 63%, 29%, 146%, 60%, and 63%, respectively.

Experiment [3] shares this test system. In kind it is biochemical, Ochrobactrum anthropi. The settings on record: for Activity of (S)-selective ω-transaminase toward amine (in words): Table 10, speaks of the (S)-selective ω-transaminase without naming O. anthropi or P. denitrificans; for L-alanine (mM) O. anthropi: amine 20 mM (40 mM racemic sec-butylamine), pyruvate as acceptor, 50 mM potassium phosphate pH 7, 37° C., 10 min. How it is done:
(§1) The substrate specificity of the (S)-selective ω-transaminase was confirmed in each amine (20 mM), (S)-amine (20 mM, in 40 mM racemic sec-butylamine) and potassium phosphate (50 mM, pH 7). After the reactions were carried out at 37° C. for 10 min, the amounts of L-alanine produced were measured.

The subject of experiment [4] is (S)-selective ω-transaminase derived from P. denitrificans. As to the kind of experiment: Substrate specificity of (S)-selective ω-transaminase toward amines (L-alanine from pyruvate). In kind it is biochemical, Paracoccus denitrificans. The settings on record: amine 20 mM (40 mM racemic sec-butylamine), pyruvate as acceptor, 50 mM potassium phosphate pH 7, 37° C., 10 min. How it is done:
as §1

The subject of experiment [5] is D-amino acid transaminase. As to the kind of experiment: Substrate specificity of purified D-amino acid transaminase toward keto acids (amino acceptors). In kind it is biochemical, Bacillus sphaericus. The settings on record: for Pyruvate (mM) generated: amino acceptor 20 mM, D-alanine 20 mM as amino donor, 0.1 U/ml enzyme, 50 mM potassium phosphate pH 7, 37° C., 10 min. As to the method:
Each of amino acceptors shown in Tables 7 and 8 and D-alanine or D-homoalanine as substrates were allowed to react with the D-amino acid transaminase purified in Example 7. Specifically, each amino acceptor (20 mM), D-alanine or D-homoalanine (20 mM), and potassium phosphate (50 mM, pH 7) were allowed to react with 0.1 U/ml of the D-amino acid transaminase at 37° C. for 10 min, and the amount of a keto acid (pyruvate or 2-oxobutyrate) generated was measured.

In experiment [6] the test system is (S)-selective ω-transaminase derived from O. anthropi. As to the kind of experiment: Substrate specificity of (S)-selective ω-transaminase toward keto acids. In kind it is biochemical, Ochrobactrum anthropi. Particulars: for Acetophenone (mM) O. anthropi: keto acid 20 mM, (S)-α-methylbenzylamine 20 mM, 50 mM potassium phosphate pH 7, 37° C., 10 min. As to the method: (§2) The substrate specificity of the (S)-selective ω-transaminase was confirmed in each keto acid (20 mM), (S)-α-methylbenzylamine (20 mM) and potassium phosphate (50 mM, pH 7). After the reactions were carried out at 37° C. for 10 min, the amounts of acetophenone produced were measured.

Experiment [7] deals with (S)-selective ω-transaminase derived from P. denitrificans. The description is as above. In kind it is biochemical, Paracoccus denitrificans. The settings on record: keto acid 20 mM, (S)-α-methylbenzylamine 20 mM, 50 mM potassium phosphate pH 7, 37° C., 10 min. As to the method:
as §2

Where [8] appears, read: racemic amine 10 mM, pyruvate 10 mM, 0.125 U/ml enzyme, pH 7.5, 37° C.

As to `CC[C@H](N)C(=O)O` [L-homoalanine], the “Effect of L-amino acid on activity of D-amino acid transaminase (FIG. 1)” value in experiment [1] is reported as “did not lose its activity”.

In the case of `CCC(N)c1ccccc1` (racemic) [Substrate 1c, α-ethylbenzylamine], the “Relative reactivity (%)” value in experiment [2] (setting [8]) stood at 18%.

Take `NC1CCc2ccccc21` (racemic) [Substrate 1e, 1-aminoindane]: the “Activity toward (S)-1-aminoindane relative to (S)-α-methylbenzylamine” value in experiment [2] is 153%. Moreover, the “Relative reactivity (%)” value in experiment [2] (setting [8]) turned out to be 64%.

On to `CC(C)N` [Isopropylamine], for which, in experiment [3], the “Activity of (S)-selective ω-transaminase toward amine (in words)” value was “have activity” and the “L-alanine (mM) O. anthropi” value turned out to be 0.309 ± 0.050 mM. In addition, the “L-alanine (mM) P. denitrificans” value in experiment [4] is 0.033 ± 0.002 mM.

`CC(N)c1ccc(F)cc1` (racemic) [Substrate 1b, 4-fluoro-α-methylbenzylamine]: the “Relative reactivity (%)” value in experiment [2] (setting [8]) is listed as 91%.

For the compound `CCCCCCC(C)N` (racemic) [Substrate 1i, 2-aminooctane], the “Relative reactivity (%)” value in experiment [2] (setting [8]) is on record as 146%.

Turning to `CC(N)c1ccccc1` (racemic) [Substrate 1a, α-methylbenzylamine], the “Relative reactivity (%)” value in experiment [2] (setting [8]) was 100^c %. In experiment [2] (racemic amine 10 mM, pyruvate 10 mM, 0.125 U/ml enzyme, pH 7.5, 37° C., ≦5% conversion), this compound gave an Initial reaction rate of 0.033 mM/min.

With `CCC(C)N` (racemic) [Substrate 1f, sec-butylamine], in experiment [3], the “Activity of (S)-selective ω-transaminase toward amine (in words)” value is “have activity” and the “L-alanine (mM) O. anthropi” value was found to be 0.164 ± 0.019 mM. Further, the “L-alanine (mM) P. denitrificans” value in experiment [4] was 0.000 ± 0.000 mM. In experiment [2] (setting [8]), the “Relative reactivity (%)” value was found to be 54%.

In the case of `CC(N)CCc1ccccc1` (racemic) [Substrate 1d, 1-methyl-3-phenylpropylamine], the “Relative reactivity (%)” value in experiment [2] (setting [8]) was determined as 70%.

For `CC(N)CO` (stereo not shown) [Substrate 1k, alaninol], the “Relative reactivity (%)” value in experiment [2] (setting [8]) stood at 63%.

On to `C[C@H](N)c1ccccc1` [(S)-α-methylbenzylamine], for which, in experiment [3], the “Activity of (S)-selective ω-transaminase toward amine (in words)” value is “have activity” and the “L-alanine (mM) O. anthropi” value was determined as 0.715 ± 0.082 mM. Moreover, in experiment [4], the “L-alanine (mM) P. denitrificans” value is listed as 0.451 ± 0.077 mM.

`N[C@H]1CCc2ccccc21` [(S)-1-aminoindane]: the “Activity toward (S)-1-aminoindane relative to (S)-α-methylbenzylamine” value in experiment [2] is 153%.

Turning to `CCC(=O)C(=O)O` [2-Oxobutyrate], in experiment [5] (Tables 7 and 8), the “Activity of D-amino acid transaminase toward amino acceptor (in words)” value is recorded as “have activity”. In experiment [5], the “Pyruvate (mM) generated” value was determined as 1.375 mM. Also, the “Activity of (S)-selective ω-transaminase toward keto acid (in words)” value in experiment [6] (Table 9, speaks of the (S)-selective ω-transaminase without naming O. anthropi or P. denitrificans) is reported as “have activity”. In experiment [6], the “Acetophenone (mM) O. anthropi” value was determined as 0.173 mM. Moreover, the “Acetophenone (mM) P. denitrificans” value in experiment [7] is given as 0.821 mM.

Regarding `CCCC(C)N` (racemic) [Substrate 1h, 2-aminopentane], the “Relative reactivity (%)” value in experiment [2] (setting [8]) was found to be 29%.

As for `O=CC(=O)Oc1ccccc1` [Phenyl glyoxylate], in experiment [5], the “Pyruvate (mM) generated” value was 0.000 mM. In experiment [6], the “Acetophenone (mM) O. anthropi” value was -0.005 mM. Also, in experiment [7], the “Acetophenone (mM) P. denitrificans” value is -0.008 mM.

In the case of `COCC(C)N` (racemic) [Substrate 1j, 1-methoxy-2-propylamine], in experiment [2] (setting [8]), the “Relative reactivity (%)” value is 60%.
